Laboratory results as given in patent publication US20250170248A1, “SMARCA DEGRADERS AND USES THEREOF” (Kymera Therapeutics, Inc., priority 2021, published 2025).
Blank lines part the entries; values can stand above or below the compound they belong to.

Tests used:
Format in all cases: cell-based
[1] = target: T1, SMARCA4 (Homo sapiens, UniProt P51532); experiment: SMARCA4 Western blot degradation in MV4-11 cells; settings: for Dmax: MV4-11, MV4-11 cells, read-out: SMARCA4 MSD MV411 degradation 24 h: average Dmax %; for Dmax / DC50: 24 h; for DC50 / SMARCA4 MSD MV411 degradation 24 h: average Dmax %: MV4-11 cells; for DC50: read-out: SMARCA4 MSD MV411 degradation 24 h: Mean external-Abs DC50
T1 construct: SMARCA2/SMARCA4 protein degradation selectivity in MV4-11 cells; endogenous in cells; host or cells: MV4-11
Procedure, shortened: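 Protein levels quantified by LI-COR Western blot (beta-actin loading control) in RIPA lysates of MV4-11 cells after 24 h compound exposure. Degradation reported as DC50, Dmax % at 24 h and SMARCA2 vs SMARCA4 selectivity, each binned into letter codes.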

[2] = target: T2, SMARCA2 (Homo sapiens, UniProt P51531); experiment: SMARCA2 Western blot degradation in MV4-11 cells; set-up: SMARCA2/SMARCA4 protein degradation selectivity in MV4-11 cells; endogenous in cells; host or cells: MV4-11; settings: for Dmax: MV4-11, MV4-11 cells, read-out: SMARCA2 MSD MV411 degradation 24 h: average Dmax %; for Dmax / DC50 / SMARCA2 MSD MV411 degradation 24 h: average Dmax %: 24 h; for DC50 / Selectivity in MV411 / SMARCA2 MSD MV411 degradation 24 h: average Dmax %: MV4-11 cells; for DC50: read-out: SMARCA2 MSD MV411 degradation 24 h: Mean external-Abs DC50; for Selectivity in MV411: SMARCA2/4 selectivity
[3] = target: T2, SMARCA2; experiment: MSD SMARCA2 degradation in A549 cell line; settings: for Dmax: A549, A549 cells; for Dmax / DC50: 24 h; for DC50 / SMARCA2 MSD A549 degradation 24 h: Average Dmax %: A549 cells; for DC50: read-out: SMARCA2 MSD A549 degradation 24 h: Average external-Abs DC50
Procedure, shortened: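 SMARCA2 protein remaining after 24 h exposure of A549 cells (top concentration 1000 nM, 3-fold dilutions) was measured by MSD electrochemiluminescence immunoassay of cell lysates. Results are given as binned DC50 and maximal degradation (Dmax) codes.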

T2 sequence (P51531 whole entry): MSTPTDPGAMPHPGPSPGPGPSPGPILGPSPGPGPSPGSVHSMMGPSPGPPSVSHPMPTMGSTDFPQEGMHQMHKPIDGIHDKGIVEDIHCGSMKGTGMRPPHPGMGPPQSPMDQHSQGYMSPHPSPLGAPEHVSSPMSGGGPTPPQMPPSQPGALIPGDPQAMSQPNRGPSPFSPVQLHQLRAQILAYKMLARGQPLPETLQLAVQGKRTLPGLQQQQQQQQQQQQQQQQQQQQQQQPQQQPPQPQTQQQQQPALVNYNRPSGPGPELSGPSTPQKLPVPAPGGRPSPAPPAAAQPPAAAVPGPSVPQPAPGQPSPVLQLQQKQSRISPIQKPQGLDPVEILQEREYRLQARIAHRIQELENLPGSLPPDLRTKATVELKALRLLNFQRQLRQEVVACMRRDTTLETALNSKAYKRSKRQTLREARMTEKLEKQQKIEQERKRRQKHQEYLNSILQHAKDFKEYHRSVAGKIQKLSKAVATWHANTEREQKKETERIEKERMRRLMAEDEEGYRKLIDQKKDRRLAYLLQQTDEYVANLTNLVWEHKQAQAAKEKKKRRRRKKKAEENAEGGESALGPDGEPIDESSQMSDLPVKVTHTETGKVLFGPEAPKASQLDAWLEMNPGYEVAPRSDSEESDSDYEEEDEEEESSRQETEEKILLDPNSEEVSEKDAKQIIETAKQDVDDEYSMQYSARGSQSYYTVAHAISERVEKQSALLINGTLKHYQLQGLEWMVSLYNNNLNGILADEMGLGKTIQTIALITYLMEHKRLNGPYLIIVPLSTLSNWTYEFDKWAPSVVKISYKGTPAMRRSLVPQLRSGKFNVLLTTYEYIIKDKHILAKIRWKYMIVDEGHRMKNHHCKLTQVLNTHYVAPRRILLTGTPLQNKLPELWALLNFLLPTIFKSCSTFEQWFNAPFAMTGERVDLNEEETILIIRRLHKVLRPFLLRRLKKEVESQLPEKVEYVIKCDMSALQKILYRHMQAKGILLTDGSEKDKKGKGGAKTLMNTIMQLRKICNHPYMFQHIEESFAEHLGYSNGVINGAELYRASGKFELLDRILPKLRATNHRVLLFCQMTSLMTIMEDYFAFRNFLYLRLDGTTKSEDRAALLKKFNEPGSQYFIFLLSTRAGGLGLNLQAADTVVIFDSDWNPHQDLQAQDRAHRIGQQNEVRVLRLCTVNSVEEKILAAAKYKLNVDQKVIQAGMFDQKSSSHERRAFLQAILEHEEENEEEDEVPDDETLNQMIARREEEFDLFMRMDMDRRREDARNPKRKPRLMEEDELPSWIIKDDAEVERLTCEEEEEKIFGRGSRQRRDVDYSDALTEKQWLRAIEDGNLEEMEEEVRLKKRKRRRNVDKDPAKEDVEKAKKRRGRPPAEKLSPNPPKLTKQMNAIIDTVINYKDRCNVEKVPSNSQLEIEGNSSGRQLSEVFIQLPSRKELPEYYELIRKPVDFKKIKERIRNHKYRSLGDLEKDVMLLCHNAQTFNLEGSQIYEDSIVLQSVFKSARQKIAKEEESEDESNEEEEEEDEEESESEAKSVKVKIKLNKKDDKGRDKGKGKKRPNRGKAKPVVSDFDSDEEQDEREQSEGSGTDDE
T1 sequence (P51532 whole entry): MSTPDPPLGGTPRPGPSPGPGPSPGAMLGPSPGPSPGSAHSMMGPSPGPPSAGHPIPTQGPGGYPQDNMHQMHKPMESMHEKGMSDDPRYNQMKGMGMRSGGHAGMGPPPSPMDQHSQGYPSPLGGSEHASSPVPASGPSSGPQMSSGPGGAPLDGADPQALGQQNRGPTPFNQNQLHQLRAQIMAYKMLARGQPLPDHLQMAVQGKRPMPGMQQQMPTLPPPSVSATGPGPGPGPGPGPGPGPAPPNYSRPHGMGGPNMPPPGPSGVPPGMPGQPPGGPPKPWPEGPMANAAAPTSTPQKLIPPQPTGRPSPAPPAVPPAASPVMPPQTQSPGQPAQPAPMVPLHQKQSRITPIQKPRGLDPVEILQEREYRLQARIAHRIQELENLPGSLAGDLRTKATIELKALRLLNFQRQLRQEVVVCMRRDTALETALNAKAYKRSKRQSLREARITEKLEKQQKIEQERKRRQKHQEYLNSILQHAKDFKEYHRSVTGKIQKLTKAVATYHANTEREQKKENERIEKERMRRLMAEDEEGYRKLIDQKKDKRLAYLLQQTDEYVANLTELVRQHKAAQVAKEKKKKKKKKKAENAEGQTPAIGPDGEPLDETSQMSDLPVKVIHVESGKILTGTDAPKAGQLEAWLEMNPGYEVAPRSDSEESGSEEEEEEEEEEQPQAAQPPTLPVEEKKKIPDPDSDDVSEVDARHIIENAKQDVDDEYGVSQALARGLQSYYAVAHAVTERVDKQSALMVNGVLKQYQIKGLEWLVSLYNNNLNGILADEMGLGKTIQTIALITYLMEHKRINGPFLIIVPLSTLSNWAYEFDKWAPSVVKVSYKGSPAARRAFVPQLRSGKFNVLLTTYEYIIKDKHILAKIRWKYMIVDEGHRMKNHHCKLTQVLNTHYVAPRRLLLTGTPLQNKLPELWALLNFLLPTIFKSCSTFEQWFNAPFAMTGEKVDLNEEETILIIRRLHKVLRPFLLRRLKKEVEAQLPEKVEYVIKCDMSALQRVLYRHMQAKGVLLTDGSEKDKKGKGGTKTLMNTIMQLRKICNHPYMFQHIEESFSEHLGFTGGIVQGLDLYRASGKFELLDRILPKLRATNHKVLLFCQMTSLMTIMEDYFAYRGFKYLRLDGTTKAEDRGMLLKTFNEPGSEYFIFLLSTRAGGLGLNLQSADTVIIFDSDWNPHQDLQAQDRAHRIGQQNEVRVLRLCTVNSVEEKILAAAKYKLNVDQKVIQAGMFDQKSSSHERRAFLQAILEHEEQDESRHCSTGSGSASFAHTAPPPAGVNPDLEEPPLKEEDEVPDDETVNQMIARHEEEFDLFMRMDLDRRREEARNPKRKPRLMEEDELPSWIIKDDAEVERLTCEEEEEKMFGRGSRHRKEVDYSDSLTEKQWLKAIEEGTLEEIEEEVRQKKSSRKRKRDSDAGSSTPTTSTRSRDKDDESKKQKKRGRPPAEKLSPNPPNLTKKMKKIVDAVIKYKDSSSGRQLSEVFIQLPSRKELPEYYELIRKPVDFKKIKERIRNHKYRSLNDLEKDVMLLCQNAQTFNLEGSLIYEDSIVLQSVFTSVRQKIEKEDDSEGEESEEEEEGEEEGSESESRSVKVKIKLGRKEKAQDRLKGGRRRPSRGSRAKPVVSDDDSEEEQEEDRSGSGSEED

- Dmax [1]: < 50%
- DC50 [1]: > 100 nM
- Dmax [2]: 70 to 90%
- DC50 [2]: 10 to 100 nM
- Selectivity in MV411 [2]: B (B (>100-500 fold))
- Dmax [3]: 70 to 90%
- DC50 [3]: > 100 nM
SMILES: C#Cc1ccc(CNC(=O)[C@@H]2C[C@@H](O)CN2C(=O)[C@@H](NC(=O)N2CCN(C[C@H]3CC[C@@H](N4CCC(N5CCN6c7cc(-c8ccccc8O)nnc7NC[C@H]6C5)CC4)CC3)CC2)C(C)(C)C)cc1 [I-255]

- Dmax [1]: < 50%
- DC50 [1]: > 100 nM
- Dmax [2]: < 50%
- DC50 [2]: > 100 nM
- Selectivity in MV411 [2]: D (D (<10 fold))
- Dmax [3]: < 50%
- DC50 [3]: > 100 nM
SMILES: C#Cc1ccc(CNC(=O)[C@@H]2C[C@@H](O)CN2C(=O)[C@@H](NC(=O)N2CCC[C@H](CN3CCC(N4CCC(N5CCN6c7cc(-c8ccccc8O)nnc7NC[C@H]6C5)CC4)CC3)C2)C(C)(C)C)cc1 [I-256]

- Dmax [1]: 50 to 70%
- DC50 [1]: > 100 nM
- Dmax [2]: > 90%
- DC50 [2]: 10 to 100 nM
- Selectivity in MV411 [2]: C (C (10-100 fold))
- Dmax [3]: > 90%
- DC50 [3]: 50 to 100 nM
SMILES: C#Cc1ccc(CNC(=O)[C@@H]2C[C@@H](O)CN2C(=O)[C@@H](NC(=O)[C@H]2CCC3(CC2)C[C@H](N2CCN(c4cnc(N5CCN6c7cc(-c8ccccc8O)nnc7NC[C@H]6C5)nc4)CC24CC4)C3)C(C)(C)C)cc1 (stereo partly shown) [I-266]

- Dmax [1]: > 90%
- DC50 [1]: > 100 nM
- Dmax [2]: > 90%
- DC50 [2]: 1 to 10 nM
- Selectivity in MV411 [2]: C (C (10-100 fold))
- Dmax [3]: > 90%
- DC50 [3]: < 10 nM
SMILES: C#Cc1ccc(CNC(=O)[C@@H]2C[C@@H](O)CN2C(=O)[C@@H](NC(=O)N2CC3(CC(N4CCC(c5cnc(N6CCc7[nH]c8nnc(-c9ccccc9O)cc8c7[C@H]6C)nc5)CC4)C3)C2)C(C)(C)C)c(C)c1 [I-270]

The next lines start with the compound.

SMILES: C#Cc1ccc(CNC(=O)[C@@H]2C[C@@H](O)CN2C(=O)[C@@H](NC(=O)N2CCN(C[C@H]3CC[C@H](N4CCC(N5CCN6c7cc(-c8ccccc8O)nnc7NC[C@H]6C5)CC4)CC3)CC2)C(C)(C)C)cc1 [I-254]
- Dmax [1]: < 50%
- DC50 [1]: > 100 nM
- Dmax [2]: 50 to 70%
- DC50 [2]: 10 to 100 nM
- Selectivity in MV411 [2]: B (B (>100-500 fold))
- Dmax [3]: 70 to 90%
- DC50 [3]: 50 to 100 nM

SMILES: C#Cc1ccc(CNC(=O)[C@@H]2C[C@@H](O)CN2C(=O)[C@@H](NC(=O)[C@H]2CCC3(CC2)C[C@H](N2CCC(N4CCC(N5CCN6c7cc(-c8ccccc8O)nnc7NC[C@H]6C5)CC4)CC2)C3)C(C)(C)C)c(F)c1 (stereo partly shown) [I-258]
- SMARCA4 MSD MV411 degradation 24 h: average Dmax % [1]: D (D (<50% degradation))
- DC50 [1]: > 100 nM
- SMARCA2 MSD MV411 degradation 24 h: average Dmax % [2]: C (C (50-70% degradation))
- DC50 [2]: 10 to 100 nM
- Selectivity in MV411 [2]: C (C (10-100 fold))
- SMARCA2 MSD A549 degradation 24 h: Average Dmax % [3]: B (B (>70-90% degradation))
- DC50 [3]: > 100 nM

SMILES: C#Cc1ccc([C@H](C)NC(=O)[C@@H]2C[C@@H](O)CN2C(=O)[C@@H](NC(=O)N2CC3(CC(N4CCC(c5cnc(N6CCc7[nH]c8nnc(-c9ccccc9O)cc8c7[C@H]6C)nc5)CC4)C3)C2)C(C)(C)CCO)cc1 [I-259]
- Dmax [1]: < 50%
- DC50 [1]: > 100 nM
- Dmax [2]: 70 to 90%
- DC50 [2]: 1 to 10 nM
- Selectivity in MV411 [2]: A (A (>500 fold))
- Dmax [3]: > 90%
- DC50 [3]: < 10 nM

SMILES: C#Cc1ccc(CNC(=O)[C@@H]2C[C@@H](O)CN2C(=O)[C@@H](NC(=O)[C@H]2CCC3(CC2)C[C@H](N2CCN(c4cnc(N5CCN6c7cc(-c8ccccc8O)nnc7NC[C@H]6C5)nc4)CC24CC4)C3)C(C)(C)C)cc1 (stereo partly shown) [I-267]
- SMARCA4 MSD MV411 degradation 24 h: average Dmax % [1]: D (D (<50% degradation))
- DC50 [1]: > 100 nM
- SMARCA2 MSD MV411 degradation 24 h: average Dmax % [2]: B (B (>70-90% degradation))
- DC50 [2]: 10 to 100 nM
- Selectivity in MV411 [2]: B (B (>100-500 fold))
- SMARCA2 MSD A549 degradation 24 h: Average Dmax % [3]: B (B (>70-90% degradation))
- DC50 [3]: 50 to 100 nM

SMILES: C#Cc1ccc(CNC(=O)[C@@H]2C[C@@H](O)CN2C(=O)[C@@H](NC(=O)N2CC3(CC(N4CC(N5CCC(c6cnc(N7CCc8[nH]c9nnc(-c%10ccccc%10O)cc9c8[C@H]7C)nc6)CC5)C4)C3)C2)C(C)(C)C)cc1 [I-268]
- Dmax [1]: 50 to 70%
- DC50 [1]: > 100 nM
- Dmax [2]: 70 to 90%
- DC50 [2]: 10 to 100 nM
- Selectivity in MV411 [2]: C (C (10-100 fold))
- Dmax [3]: > 90%
- DC50 [3]: > 100 nM

SMILES: C#Cc1ccc(CNC(=O)[C@@H]2C[C@@H](O)CN2C(=O)[C@@H](NC(=O)N2CCN(Cc3ccc(-c4cnc(N5CCN6c7cc(-c8ccccc8O)nnc7NC[C@H]6C5)nc4)cc3)CC2)C(C)(C)C)cc1 [I-269]
- Dmax [1]: 50 to 70%
- DC50 [1]: > 100 nM
- Dmax [2]: 70 to 90%
- DC50 [2]: 10 to 100 nM
- Selectivity in MV411 [2]: C (C (10-100 fold))
- Dmax [3]: > 90%
- DC50 [3]: 10 to 50 nM
